Source: patent US9326511B2, “Methods of inhibiting microbial biofilms” (priority 2008, dated 2016)

Columns and labels:
[1] = test system: E. coli cells; test: Binding of compounds with bacterial cells (spectrofluorimetric analysis of cell lysates); conditions: 5 min incubation
Experimental: […] At the end of the incubation period, the cells were sedimented by centrifugation to remove the fraction of unbound test compound and the cell pellet was resuspended in 2 ml of 2% SDS to obtain cell lysates. After overnight incubation with SDS, the amount of cell-bound test compound was estimated by spectrofluorimetric analysis of the cell lysates. The concentration of the compounds in the cell lysates was calculated by measuring the intensities at the maximum of the emission fluorescence spectrum and interpolating the data on a calibration plot. The amount of cell-bound test compound was expressed as nmoles of compound per mg of cell protein. The protein concentration was determined by the method of Lowry (Lowry et al., 1951, J. Biol. Chem. 193:265-275).
All experiments were run in triplicate and the results represent the average of 3 determinations with standard deviations.

[2] = Chemical stability, qualitative stress tests (HPLC, LC-MS); format: physicochemical; conditions: solid, aqueous solution, PBS, 7 days each at 50, 70 and 90° C.
Experimental: The following HPLC methodology was established for the analysis of the exemplary compounds of the invention.
The method involves detection by UV at a wavelength of 420 nm, which is very specific for these compounds. In order to monitor impurities not related to the porphyrin structure (and therefore not absorbing at 420 nm) UV spectra of the whole chromatograms were also recorded between 200 nm and 700 nm by DAD (diode array detector) in certain experiments. • Column: Zorbax Phenyl, 250×4.6 mm, 5 µm • Eluent A: 1.5 g sodium dodecylsulfate+1 mL formic acid in 1000 mL water • Eluent B: 1.5 g sodium dodecylsulfate+1 mL formic acid in 200 mL water+800 mL tetrahydrofurane • Gradient:
• Flow rate: 0.4 mL/min • Detection: 420 nm • Column temperature: 25° C. • Injection volume: 10 μl • Solutions: Porphyrin derivatives were dissolved in eluent A to give a final concentration of approximately 0.3 mg/ml.
Qualitative stress tests were undertaken on the exemplary compounds of the invention. Analysis was undertaken by HPLC & LC-MS. The compounds were stress tested in solid form, in an aqueous solution and a solution made up in phosphate-buffered saline buffer. The samples were initially incubated for 7 days at 50° C. and a sample removed for testing. The samples were then incubated for a further 7 days at 70° C., samples removed as before and the samples incubated further for 7 days at 90° C. HPLC analysis of freshly prepared solutions was undertaken and compared to the samples after 7, 14 and 21 days incubation. A visual comparison of the chromatograms was then undertaken and the content of the main products and by-products as area percentage values determined (see FIG. 4).

[3] = test system: stringent S. aureus SH1000 cultures; test: Time-kill against cultures expressing the stringent response (induced with mupirocin); format: cell-based, Staphylococcus aureus; conditions: for viability / bactericidal activity in time-kill (in words): stringent response induced with mupirocin, agents at 4×MIC
Experimental: Methods: MICs were determined for planktonic cultures by broth microdilution according to British Society for Antimicrobial Chemotherapy (BSAC) guidelines. Biofilm MICs (bMIC) and minimum biofilm eradication concentrations (MBECs) were determined using the Calgary biofilm device. The effect of Compound 10 on the viability of cold culture cells was determined by growing S. aureus SH1000 to early exponential phase at 37° C. and resuspending the cells in pre-chilled media, where they were maintained in the presence and absence of Compound 10 and control agents. The effect of Compound 10 on slow growing cells expressing the stringent response was also determined by growing cultures to early log phase and the stringent response induced by the addition of the isoleucyl-tRNA synthetase inhibitor mupirocin. Compound 10 and control agents were then added and samples recovered for viable cell determinations.
When nutrients become limiting for growth bacteria adjust their metabolism from one that supports growth to one that provides for long survival in the absence of nutrients. In many bacteria a key facilitator of this physiological switch, known as the stringent response, is accumulation of guanosine […] and pentaphosphate (Traxler et al., 2008). The antibiotic mupirocin is a strong inducer of the stringent response in S. aureus and effectively causes starvation of charged isoleucyl tRNA by potent inhibition of isoleucy ItRNA synthetase (IRS) (Oliva et al., 2003). The activity of XF drugs against S. aureus SH1000 prevented from growing by the addition of mupirocin (Oliva et al., 2003), was therefore examined (FIG. 10). As an alternative method for arresting growth, bacteria were suspended in cold growth medium (Mascio et al., 2007) and the bactericidal activity of XF drugs was also determined under these conditions (FIG. 11).
The anti-staphylococcal activities of Compound 10, Compound 12 and a range of comparator agents against slow-growing cultures of Staphylococcus aureus were studied using standard time-kill methodology (Oliva et al. 2003, Hobbs et al. 2008). Staphylococcus aureus SH1000 cultures were grown to early exponential phase (OD600 nm of 0.2) in Mueller-Hinton broth (MHB) before being exposed to antibacterial agents at 4×MIC. An untreated culture served as the negative control. The experiments were undertaken in triplicate.
The antibiotic mupirocin is a strong inducer of the stringent response in S. aureus and causes starvation of charged isoleucyl tRNA by potent inhibition of isoleucyl tRNA synthetase (IRS) (Oliva et al. 2003, Cassels et al. 1995) Stringency was induced in SH1000 cultures by adding mupirocin (4 mg/L) to cells in the early exponential growth phase (OD600 nm of 0.2) (Oliva et al. 2003, Cassels et al. 1995). Cultures were incubated with mupirocin for 30 minutes before sampling began. Cultures were maintained at 37° C., and samples were taken at 30 minute intervals for 300 minutes, serially diluted in phosphate buffered saline (PBS) and diluted culture was spread on Mueller-Hinton agar and was incubated at 37° C. for 18-24 hours before the number of CFU were counted.

| Compound | Bound compound ([1]; 0.01 μM compound, 0 washings) | Bound compound ([1]; 0.01 μM compound, 3 washings) | Bound compound ([1]; 0.1 μM compound, 0 washings) | Bound compound ([1]; 0.1 μM compound, 3 washings) | Bound compound ([1]; 0.5 μM compound, 0 washings) | Bound compound ([1]; 0.5 μM compound, 3 washings) | Bound compound ([1]; 1 μM compound, 0 washings) | Bound compound ([1]; 1 μM compound, 3 washings) | Chemical stability under stress [2] | drop in viability ([3]; stringent response cultures, 4×MIC, within 1 hour) | viability / bactericidal activity in time-kill (in words) [3] |
| --- | --- | --- | --- | --- | --- | --- | --- | --- | --- | --- | --- |
| C[N+](C)(C)CCCOc1ccc(-c2c3nc(cc4ccc([nH]4)c(-c4ccc(OCCC[N+](C)(C)C)cc4)c4nc(cc5ccc2[nH]5)C=C4)C=C3)cc1.[Cl-].[Cl-] [Compound 10, 5,15-bis-[4-(3-Trimethylammonio-propyloxy)-phenyl]-porphyrin dichloride] | 0.026 ± 0.005 nmoles/mg cell proteins | 0.015 ± 0.0004 nmoles/mg cell proteins | 0.274 ± 0.05 nmoles/mg cell proteins | 0.078 ± 0.02 nmoles/mg cell proteins | 1.542 ± 0.350 nmoles/mg cell proteins | 0.334 ± 0.092 nmoles/mg cell proteins | 2.70 ± 0.354 nmoles/mg cell proteins | 1.278 ± 0.102 nmoles/mg cell proteins | good stability | 5 log | retained potent bactericidal activity |
| C[N+](C)(C)CCCOc1cccc(-c2c3nc(cc4ccc([nH]4)c(-c4cccc(OCCC[N+](C)(C)C)c4)c4nc(cc5ccc2[nH]5)C=C4)C=C3)c1.[Cl-].[Cl-] [Compound 12, 5,15-bis-[3-(3-Trimethylammonio-propyloxy)-phenyl]-porphyrin dichloride] | 0.041 ± 0.02 nmoles/mg cell proteins | 0.021 ± 0.005 nmoles/mg cell proteins | 0.151 ± 0.02 nmoles/mg cell proteins | 0.089 ± 0.02 nmoles/mg cell proteins | 0.806 ± 0.14 nmoles/mg cell proteins | 0.622 ± 0.10 nmoles/mg cell proteins | 2.70 ± 0.30 nmoles/mg cell proteins | 1.930 ± 0.20 nmoles/mg cell proteins | good stability |  | retained potent bactericidal activity |
